Assay results: a melting point compilation (Tetko et al.; mined from patent text by program, amines drawn as free bases though some values may be those of a salt)

| SMILES | melting point [°C] |
| --- | --- |
| CCC(=O)NCCC1CCc2cc(F)c(O)cc21 (stereo unspecified) | 93 to 96 |
| C[C@@H](O)[C@H]1C(=O)N([Si](C)(C)C(C)(C)C)[C@@H]1[C@@H]1COC(C)(C)O1 | 80 to 90 |
| CCc1nc(-c2ncn3c2CCCc2ccccc2-3)no1 | 151 |
| O=CCCC[C@@H](C(=O)O)N1C(=O)c2ccccc2C1=O | 219 to 222 |
| N#CCCNC(=O)c1cccc(-c2ccc3c(c2)N(Cc2cc(Cl)cc(Cl)c2)CC3)c1 | 179 to 180 |
| CC(C)NC(=O)Nc1c(C(=O)c2ccccc2)[nH]c2cc(Cl)ccc12 | 265 to 266 |
| CCOc1ccc(C)c(N(Cc2ccccc2)C(=O)C(C)(C)Br)c1 | 87 to 88 |
| CNC(=O)c1ccc(Nc2nc(O[C@H]3CCOC3)c3c(-c4ccc5nc(C)oc5c4)c[nH]c3n2)c(C)c1 | 273 to 274 |
| Nc1nc(/C(=N/OCC(=O)OC(c2ccccc2)c2ccccc2)C(=O)O)cs1 | 125 |
| CC(CC(=O)NCc1ccccc1)C(N)=O (stereo unspecified) | 127 to 129 |
| CCCCOc1c(CNC(=O)OC(C)(C)C)n(CC(C)C)c(=O)c2ccc(NC(C)=O)cc12 | 174 to 175 |
| CCCCOCn1c(-c2ccc(Cl)cc2)c(C#N)c(Br)c1C(F)(F)F | 52 to 53.5 |
| COc1ccc([N+](=O)[O-])cc1CBr | 78 |
| O=c1[nH]c(-c2ccccn2)nnc1-c1ccc(Cl)cc1 | 216 to 217 |
| CSC(Oc1cc(C)c2ncc(I)cc2c1)C(=O)NC(C)(C#N)CF (stereo unspecified) | 70 to 79 |
| CS(=O)(=O)C(=C1CN(C(c2ccccc2)c2ccccc2)C1)c1ccc(Cl)c(Cl)c1 | 170 |
| CC(=O)NC[C@H]1CN(c2ccc(C(=O)c3cnc4c([N+](=O)[O-])cccn34)cc2)C(=O)O1 | 229 to 230 |
| CCCc1ccnc(C(=O)OCC)c1N | 93 to 96 |
| CC(C=CC1(O)C(C)=CC2(OCCO2)c2ccccc21)=CCO (stereo unspecified) | 116 to 118 |
| Cc1cc2c(cc1C)-n1cnnc1C=C(c1ccc(-n3c(C)nc4cnccc43)cc1)N2 | 302 to 304 |
| Cc1c(NC(=O)c2ccc(OC[C@@H]3CCCO3)cc2)ccc2cc(CNCC(C)(C)C)n(C)c12 | 201 |
| CCCC(C)(Cl)Cn1ncc(OCc2ccc(CC)cc2)c(Cl)c1=O (stereo unspecified) | 81 to 83 |
| O=C1Nc2ccccc2N(C(=O)CN2CCCCC2CN2CCCC2)c2cscc21 (stereo unspecified) | 205 to 207 |
| O=C(Nc1ccc(C(=O)N2Cc3cccn3Cc3ccccc32)cc1)c1ccccc1C(F)(F)F | 226 to 228 |
| CN1c2c(oc(=O)n(-c3ncccn3)c2=O)-c2ccccc2S1(=O)=O | 282 to 284 |
| COC(=O)c1nc2n(c1C)-c1ccc(Cl)cc1C(c1ccccc1F)=NC2 | 137 to 138 |

| SMILES | melting point [°C] |
| --- | --- |
| N#Cc1cccc(C(=O)Nc2c(Cl)cncc2Cl)c1 | 242 to 244 |
| NS(=O)(=O)c1ccc(NC(=O)CCl)c(Br)c1 | 174 to 175 |
| COc1ccc(C=C(C)C(=O)O)cc1F | 167 to 169 |
| O=S(=O)(c1cc(Cl)cc(Cl)c1)n1ccc2c(N3CCN(Cc4ccccc4)CC3)cccc21 | 162 to 163 |
| CCOC(=O)c1ccc(N2CCC(NCC(O)COc3cccc([N+](=O)[O-])c3N)CC2)nc1 (stereo unspecified) | 140 to 142 |
| O=C(NCc1c[nH]c(=S)n1[C@H]1CCc2c(F)cc(F)cc2C1)c1cccnc1 | 218 to 221 |
| Cc1n[nH]c(C)c1-c1cccc(OC2SCC(O)C(O)C2O)c1 (stereo unspecified) | 213 |
| NCC1CCN(c2nccc(C(N)=O)n2)CC1 | 144 to 148 |
| CC(CCC(=O)O)C(=O)NC1(C(=O)O)CCCC1 (stereo unspecified) | 170 to 172 |
| O=C(N[C@H](Cc1cccc(OCC(F)(F)F)c1)[C@@H](O)c1ccc(F)cc1)c1cccc2c1C=CCCC2 (racemic) | 172 to 173 |
| CC1(C)CC1(N)C(=O)OCC(CO)OCn1cnc2c(=O)[nH]c(N)nc21 (stereo unspecified) | > 300 |
| Cn1c(-c2ccc(Cl)cc2)nc2cc(CN3CCN(C(c4ccccc4)c4ccccc4)CC3)ccc21 | 198 |
| CCCCCCCCCCCCCCOc1ccc(CNc2ccccc2)cc1 | 58 to 59 |
| CNC(=O)c1ccnc(NC(=O)N2CCC3(CC2)Cc2ccccc2C3)c1 | 229 to 231 |
| CCOC(=O)Nc1c(C(=O)OC)sc2cc(OC)ccc12 | 137 |
| O=C(O)c1ccc(S(F)(F)(F)(F)F)cc1[N+](=O)[O-] | 165 to 167 |
| COC(=O)/C=C/c1cc(Br)cs1 | 63 to 67 |
| CCOC(=O)N1CCC(O)(c2cc(F)c(Br)cc2F)CC1 | 133 to 136 |
| C=CCC1CC(NC(=O)C(F)(F)F)C(OC(=O)c2ccc([N+](=O)[O-])cc2)C(C)O1 (stereo unspecified) | 138 to 139 |
| C[C@@H]1O[C@](/C=C/C2CC2)(C(F)(F)F)c2c(ccc(F)c2F)NC1=O (relative stereo) | 192 to 193 |
| Cc1oc(-c2ccccc2)nc1COc1cccc(C#CC(C)n2oc(=O)[nH]c2=O)c1 (stereo unspecified) | 55 to 57 |
| CCOC(=O)C=Cc1ccc(OC)c(OC)c1 | 53 to 55 |
| CCCCNS(=O)(=O)C[C@@H](O)C(O)[C@@H](CC1CCCCC1)NC(=O)[C@@H](N)CC(C)C (relative stereo) | 99 to 109 |
| CC1(C)C2CC[C@]1(C)C(=O)C(C(=O)Nc1cc(C(F)(F)F)cc(C(F)(F)F)c1)C2=O (stereo partly specified) | 68 to 72 |
| NC(=O)[C@H](O)[C@@H](O)[C@H](O)[C@H](O)CO | 109 to 111 |
| CCCCSc1ccc(C2CC(=O)C(C(=O)CC)=C(O)C2)cc1 (stereo unspecified) | 79 |

| SMILES | melting point [°C] |
| --- | --- |
| CC(C)S(=O)(=O)c1cnc2c(c1)nc(CC(C)(C)C)n2CC1CCOCC1 | 201 |
| CC12CCC3c4ccc(O)cc4CCC3C1CCC2=CCl (stereo unspecified) | 130 to 133 |
| CC(CCCCCCC(=O)O)C1CCC2C3CCC4CC(O)CCC4(C)C3CC(O)C12C (stereo unspecified) | 182 to 185 |
| Cc1cc(N)cc(C)c1Oc1ccc(O)c(Cc2ccc(F)cc2)c1 | 179 to 182 |
| Cc1ccccc1CC(=O)Nc1ccc(C(=O)O)c(Cl)c1 | 214 to 218 |
| Cc1nnc2n1-c1ccc(Br)cc1C(c1ccccc1)=NC2 | 268 to 270 |
| CC(C)(COS(N)(=O)=O)Oc1ccc(Cl)cc1 | 76 to 79 |
| BrCc1cc(I)cc(I)c1I | 120 to 121 |
| CC1(C)OC(=O)Nc2ccc(-c3cc(F)cc(Br)c3)cc21 | 182 to 183 |
| O=C1NCc2c3c(c4[nH]c5ccccc5c4c21)Cc1ccc(C=Cc2ccccn2)cc1-3 | > 320 |
| Cc1cccc(SC2=C(O)CC(CCc3ccccc3)(c3ccccc3)OC2=O)c1 (stereo unspecified) | 68 to 70 |
| COc1ccc(CNc2n[nH]c(N)c2C#N)cc1 | 148 to 149 |
| O=C(CCN1CCC(C(O)(c2ccc(F)cc2)c2ccc(F)cc2)CC1)N(c1ccccc1)c1ccccc1 | 160 to 162 |
| CC1(C)Cc2nc(C3CCCC3)c(C(=O)c3ccc(C(F)(F)F)cc3)c(-c3ccsc3)c2C(O)C1 (stereo unspecified) | 179 to 182 |
| CN1CCC(c2ccc(OC(C)(C)CO)cc2)c2ccccc21 (stereo unspecified) | 92 to 94 |
| COc1nc(Cl)cc2nccn12 | 115 to 118 |
| CCn1cc(C(=O)O)c(=O)c2cc(OC)c(C3CCCCC3)cc21 | 176 to 178 |
| CCC(=O)c1cnc2c(O)cccc2c1Nc1ccccc1C | 125 to 128 |
| CC(Oc1ccccc1[N+](=O)[O-])C(=O)NCCO[N+](=O)[O-] (stereo unspecified) | 65 to 67 |
| CCc1nn2ccccc2c1N(CCCF)C(=O)COC | 59.9 to 63.9 |
| O=C(O)C(NS(=O)(=O)c1ccc(Cl)cc1)C1CCCCC1 (stereo unspecified) | 120 to 128 |
| CCc1cccc2c1C(=O)NS2(=O)=O | 183 to 185 |
| c1cc2c3c(c[nH]c3c1)CC1NCCOC21 (stereo unspecified) | 175 to 177 |
| COC(=O)c1cc2c(nc1C1=NC(C)(C(C)C)C(=O)N1)CCOC2 (stereo unspecified) | 208 to 220 |
| CN(Cc1ccc(NC(=O)C2=Cc3cc(-c4ccc(C(F)(F)F)cc4)ccc3S(=O)(=O)CC2)cc1)C1CCOCC1 | 270 to 272 |
| C=CCOc1cc(-c2nn3c(c2Cl)CCCC3)c(F)cc1Cl | 91 to 92 |

| SMILES | melting point [°C] |
| --- | --- |
| NN(C(=O)c1c(F)cccc1Cl)c1ccccc1C(F)(F)F | 147 to 148 |
| O=C1N(CC2CCCO2)c2ccccc2C12COc1cc3c(cc12)OCCCO3 (stereo unspecified) | 134 to 138 |
| CC(C)N1CCC(COc2ccc(-c3ccc(=O)[nH]n3)cn2)CC1 | 188 to 191 |
| O=C(Nc1ccc(OC(F)(F)F)cc1)NC1CCN(C(=O)Cc2ccccn2)CC1 | 183 to 187 |
| C=CCC(Oc1cccc(C)c1C)C1=NCCN1 (stereo unspecified) | 72 to 74 |
| O=C(OCc1ccccc1)[C@H](Cc1ccccc1)NC(=O)N1CCOCC1 | 85 to 87 |
| O=c1[nH]c(S)ncc1OC1CCCCO1 (stereo unspecified) | > 300 |
| O=C(c1ccc(I)cc1)c1ccc2nc(Cl)nc(-c3cccc(Cl)c3)c2c1 | 153 |
| Cc1cc2c(cc1F)C(C)(C)CCC2(C)C | 90 to 91.8 |
| CC1Sc2nccn2C1(C)C(O)C=Cc1ccco1 (stereo unspecified) | 149 to 150 |
| CC(C)(C)OC(=O)NCC(=O)c1ccc(OCc2ccccc2)cc1 | 75 to 76 |
| CN1CC(=O)N2CCC[C@H]2C1=O | 133 to 135 |
| CC1(C)C(=O)Nc2cccc(O)c21 | 224 to 225 |
| CS(=O)(=O)N(c1ccc(C#CCCN2CC=C(c3ccccc3)CC2)nc1)S(C)(=O)=O | 168 to 170 |
| O=C(O)CCCCc1cc(O)c(O)c(Cl)c1 | 99 to 101 |
| COCC(=O)NNC(=O)c1cc2cccc(N(C)S(=O)(=O)c3cccs3)c2[nH]1 | 148 to 149 |
| Clc1cnc2c(Cl)cccc2n1 | 137 to 138 |
| C[C@H]([C@](O)(Cn1cncn1)c1ccc(F)cc1F)S(=O)(=O)CC(N)=O | 184 to 185 |
| Cc1ccc(S(=O)(=O)OC[C@H]2CCc3ccc4ccccc4c3O2)cc1 | 107 to 111 |
| CC1(C)CC(=C(c2ccccc2)c2ccc(OCCOCCO)cc2)CC(C)(C)C1 | 116 to 117 |
| O=[N+]([O-])c1cccc(-c2cc(C(O)c3ccnc(Cl)c3)cc3ccoc23)c1 (stereo unspecified) | 178 to 180 |
| O=C(N[C@@H](CO)c1nc2cc(Br)ccc2[nH]1)c1ccc(C(=O)N2CCCC2)c(Br)c1 | 114 to 116 |
| COc1ccc(C(=O)SC[C@@H](C)C(=O)N2CCC[C@H]2C(=O)O)cc1 | 140 to 141 |
